ChEMBL document CHEMBL1156738, “Design, synthesis and evaluation of novel oxazaphosphorine prodrugs of 9-(2-phosphonomethoxyethyl)adenine (PMEA, adefovir) as potent HBV inhibitors” (Bioorg Med Chem Lett, 2009)

Columns and labels:
Hepatitis B virus [1] = assay: Antiviral activity against Hepatitis B virus infected HepG2(2.2.15) cells assessed as inhibition of viral cytoplasmic DNA synthesis by real-time PCR; assay type: functional, organism-based
[2] = Cytotoxicity against human HepG2(2.2.15) cells; assay type: cell-based
[3] = Selectivity index, ratio of CC50 for human HepG2(2.2.15) cells to IC50 for Hepatitis B virus; assay type: functional
[4] = Metabolic stability in human liver microsomes assessed as half life; assay type: ADME, Microsome
Hepatitis B virus [5] = assay: Ratio of compound IC50 to adefovir dipivoxil IC50 for Hepatitis B virus; assay type: functional
Homo sapiens = species on record: Homo sapiens; assay: Metabolic stability in human plasma assessed as half life

SMILES	IC50 (Hepatitis B virus [1]) [µM]	CC50 [2] [µM]	Ratio CC50/IC50 [3]	half-life [4] [h]	Ratio (Hepatitis B virus [5])	half-life (Homo sapiens) [h]
CCOC(=O)[C@H](C(C)C)N1CCCO[P@@]1(=O)COCCn1cnc2c(N)ncnc21.O=C(O)/C=C/C(=O)O	50	468	9			
CCOC(=O)[C@@H](C(C)C)N1CCCO[P@@]1(=O)COCCn1cnc2c(N)ncnc21.O=C(O)/C=C/C(=O)O	50	439	9			
COC(=O)[C@H](C(C)C)N1CCCO[P@@]1(=O)COCCn1cnc2c(N)ncnc21.O=C(O)/C=C/C(=O)O				> 6		
CCC(C)[C@@H](C(=O)OC)N1CCCOP1(=O)COCCn1cnc2c(N)ncnc21.O=C(O)/C=C/C(=O)O (some centres not stated)	2.21	648	293			
COC(=O)[C@H](CC(C)C)N1CCCOP1(=O)COCCn1cnc2c(N)ncnc21.O=C(O)/C=C/C(=O)O (some centres not stated)	0.32	222	694			
CC(C)(C)C(=O)OCOP(=O)(COCCn1cnc2c(N)ncnc21)OCOC(=O)C(C)(C)C [ADEFOVIR DIPIVOXIL]	0.33	555				
COC(=O)CN1CCCOP1(=O)COCCn1cnc2c(N)ncnc21.O=C(O)/C=C/C(=O)O (racemic)	0.88	602	683			
COC(=O)[C@H](C(C)C)N1CCCO[P@]1(=O)COCCn1cnc2c(N)ncnc21.O=C(O)/C=C/C(=O)O	0.12	577	4800	3.6	3	> 6
CC(C)OC(=O)[C@H](C(C)C)N1CCCO[P@]1(=O)COCCn1cnc2c(N)ncnc21.O=C(O)/C=C/C(=O)O	5.76	592	103			
CCOC(=O)[C@H](C(C)C)N1CCCO[P@]1(=O)COCCn1cnc2c(N)ncnc21.O=C(O)/C=C/C(=O)O	3	560	187			
COC(=O)[C@H](C)N1CCCO[P@@]1(=O)COCCn1cnc2c(N)ncnc21.O=C(O)/C=C/C(=O)O	0.91	590	649			
COC(=O)[C@H](C)N1CCCO[P@]1(=O)COCCn1cnc2c(N)ncnc21.O=C(O)/C=C/C(=O)O	0.51	650	1270			
COC(=O)[C@H](Cc1ccccc1)N1CCCOP1(=O)COCCn1cnc2c(N)ncnc21.O=C(O)/C=C/C(=O)O (some centres not stated)	2.62	726	277			
CCOC(=O)[C@@H](C(C)C)N1CCCO[P@]1(=O)COCCn1cnc2c(N)ncnc21.O=C(O)/C=C/C(=O)O	50	400	8			
